Experimental data taken from patent US10774083B2, “Heterocyclic amide compound” (TAKEDA PHARMACEUTICAL COMPANY LIMITED, priority 2016, dated 2020).

Test system: human malignant melanoma cell line SKMEL-2
Test: antitumor action on mice transplanted with human malignant melanoma cell line SKMEL-2
Assay type: in vivo, mouse
Settings: once per day, 14 days
Protocol: An antitumor action of the compound of the present invention on mice transplanted with human malignant melanoma cell line SKMEL-2 and human fibrosarcoma cell line HT-1080 was evaluated by the following method.
Human malignant melanoma cell line SKMEL-2 was subcutaneously transplanted by injection to 7-week-old BALB/cA Jcl-nu/nu female mice (CLEA Japan, Inc.) at 1.0×10^7 cells (G1). At the time point when the tumor volume reached around 800 mm^3 after transplantation, the cells were subcultured and transplanted into 7-week-old BALB/cA Jcl-nu/nu female mouse (CLEA Japan, Inc.) by using trocar (G2). […] At 13 days from transplantation, the tumor diameter of the engrafted tumor was measured and the tumor volume was calculated by the following formula.
Individuals having a tumor volume of 100 to 300 mm^3 were selected for SKMEL-2, and individuals having a tumor volume of 200 to 400 mm^3 were selected for HT-1080, and 4 or 5 mice per group were used for the experiment. […] The tumor diameter was measured one day before the start of administration and one day after completion of administration and the tumor volume was calculated.
The tumor proliferation rate (T/C (%)) of the test compound administration group in comparison with the control administration group was calculated by the following formula. […]

SMILES: Cc1cc(N2CC[C@@](C#N)(C3CC3)C2=O)cc(C(=O)NCc2cc(F)cc(-c3cnn(C)c3)c2)n1 [Example 159, 4-((3S)-3-cyano-3-cyclopropyl-2-oxopyrrolidin-1-yl)-N-(3-fluoro-5-(1-methyl-1H-pyrazol-4-yl)benzyl)-6-methylpyridine-2-carboxamide]
- T/C (%) tumor proliferation rate (SKMEL-2, 5 mg/kg orally): 64%
- T/C (%) tumor proliferation rate (SKMEL-2, 10 mg/kg orally): 7.7%
